Test results taken from patent publication US11879021B2, “Cyclic peptides and uses thereof” (UNIVERSITÉ DE MONTRÉAL, priority 2016, dated 2024).
Values joined by “and” are separate entries in the source; they are usually repeats but may differ in a detail not shown here. Equal entries are not always repeated. Numbered stars: 1 amine (or outer) side, 2 acyl side, 3 side chain; on linkers, the order of the positions; unused ones are H or OH. Square brackets hold non-standard residues; d marks the D form. Peptide text beside a SMILES is read from it. azaTyr = O=C(N(Cc1ccc(O)cc1)N[*:1])[*:2]

Legend:
[1] = biological target: T1, CD36 (Rattus norvegicus, UniProt Q07969); assay: Competition binding of photoactivatable [125I]-Tyr-Bpa-Ala-Hexarelin to CD36 in rat cardiac membranes; conditions: competition with [125I]-Tyr-Bpa-Ala-Hexarelin, rat heart membranes; for IC50: read-out: IC50 (μM), binding affinity for CD36
T1 construct: from tissue; host or cells: Heart (cardiac membranes) of Sprague Dawley rats from Charles River
T1 sequence (Q07969 whole entry): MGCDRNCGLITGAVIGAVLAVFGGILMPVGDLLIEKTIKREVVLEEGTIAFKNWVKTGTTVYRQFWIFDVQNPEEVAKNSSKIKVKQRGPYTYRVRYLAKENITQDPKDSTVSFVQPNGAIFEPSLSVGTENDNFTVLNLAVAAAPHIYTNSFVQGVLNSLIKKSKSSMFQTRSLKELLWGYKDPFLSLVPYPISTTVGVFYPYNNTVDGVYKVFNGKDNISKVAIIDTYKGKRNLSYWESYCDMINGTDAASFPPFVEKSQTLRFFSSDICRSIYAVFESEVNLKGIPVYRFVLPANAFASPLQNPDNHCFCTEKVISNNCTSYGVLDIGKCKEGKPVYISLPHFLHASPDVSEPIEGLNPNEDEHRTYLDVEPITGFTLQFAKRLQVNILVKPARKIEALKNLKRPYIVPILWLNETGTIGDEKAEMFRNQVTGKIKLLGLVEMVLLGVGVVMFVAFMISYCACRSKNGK
Method: Hearts from Sprague Dawley rats (300-325 g) from Charles River were cut into small pieces and homogenized with a Polytron® at low speed, 3×15 sec in buffer A (10 mM NaHCO3, 5 mM NaN3, 10 μM Pefabloc®, 0.1 μM Aprotinin, 1 μM Pepstatin A, 1 μM Leupeptin, pH 7.0) at a concentration of […] of tissue. The homogenate was first centrifuged at 8,700×g for 20 min in a Sorvall® centrifuge and the supernatant was collected on ice. The pellet was resuspended and re-homogenized with a Glass-Teflon® Potter by 5 strokes. This homogenate was recentrifuged at 8,700×g for 10 min and the resulting supernatant was combined with the first collected supernatant. The combined supernatant was centrifuged at 35,000×g for 20 min. The pellet fraction obtained was resuspended in Buffer B (20 mM Tris-maleate, 0.6M KCl, pH 6.8) in a volume corresponding to 20 mL/g of fresh tissue using a glass homogenizer with a Teflon pestle. The resulting suspension was centrifuged again at 35,000×g for 60 min. and the pellet fraction obtained was resuspended in Buffer C (10 mM Tris/HCl buffer pH 7.4) and thoroughly homogenized in a glass with a Teflon® pestle (20 ml/g of fresh tissue). This suspension was submitted to another centrifugation at 35,000×g for 60 min. The collected pellet was resuspended in 50 mM Tris/HCl buffer pH 7.4) containing 2 mM EGTA in a final volume corresponding to 1-2 mL/g of fresh tissue. The membrane preparation obtained was frozen at −80° C. Protein concentration was determined using the bicinchoninic acid (BCA) method, employing BSA as standard.
The reaction was started by adding 3 nmol of H2O2 for 5 min at room temperature. This step was repeated twice with a period of 5 min of incubation for each addition. The reaction was stopped by diluting the mixture with 1 mL of 0.1% TFA. The radioiodinated peptide was purified by HPLC on a reverse-phase Vydac® C18 column with a 60-min linear gradient from 20% to 50% of acetonitrile in 0.1% TFA. The eluted radiolabelled tracer was collected, aliquoted (50×10^6 cpm/fraction) and stored at −80° C.
Binding studies with MPE-298 were done with increasing concentrations from 0.01 to 5 μM of competition ligands. Nonspecific binding was defined as binding not displaced by 50 μM corresponding peptide. All peptide containing solutions were diluted in Buffer B. Buffer A and B were degassed under vacuum, and used in capped tubes in order to minimize lipid peroxidation. Before the incubation period, all tubes were put under a low flow of nitrogen. All material was kept on ice and the binding assay was performed in darkness. After an incubation period of 60 min at 22° C. (vortexing every 15 min), membranes were submitted to irradiation with UV lamps (365 nm) for 15 min at 4° C. After centrifugation at 12,000×g for 15 minutes, the pellets were resuspended in 40 μl of sample buffer (62 mM Tris-HCl, pH 6.8, 2% SDS, 10% glycerol, 15% 2-mercaptoethanol, and 0.05% bromophenol blue), and boiled for 5 min prior to being subjected to electrophoresis. Proteins (50 μg/40 μl) were separated on a 7.5% SDS-PAGE Bio-Rad® Mini-Protean electrophoresis system (150 V for 1 h). The gels resulting from SDS/PAGE were fixed, colored in Coomassie Brilliant Blue R-250, dried, exposed to a storage phosphor intensifying screen (Amersham Biosciences), and analysed using a Typhoon® PhosphorImager (GE Healthcare Life Sciences®). […] The curves were analysed by using software package (Graphpad® prism version 7.0).

[2] = tested on: R-FSL-1 (TLR2 agonist)-induced NO production in RAW macrophage cell line; assay: Nitric oxide (NO) production induced by TLR2 agonist R-FSL-1 in RAW macrophage cell line; type: cell-based, murine; conditions: RAW macrophages; for suppression of R-FSL-1-mediated NO production: at the concentration tested (10^−6 or 10^−7 M), FIGS. 4A to 4F
Method: The murine RAW1 macrophage cell line was obtained from American Type Cell Collection (ATCC #TIB-71), seeded at 1.5×10^5 cells/well in Dulbecco's Modified Eagle's medium (DMEM) containing 100 U/mL of penicillin (Pen) and 100 μg/mL of streptomycin (Strep) on a 48-well plate (Costar® #3548), and incubated at 37° C. with 5% CO2. After 2 h, the cell culture medium of adhered cells was removed and replaced by DMEM-Pen/Strep medium containing 0.2% of bovine serum albumin (BSA), and supplemented with the cyclic peptides at a concentration of 10^−6 or 10^−7 M. MPE-001 (DBG178, His-D-Trp-Ala-AzaTyr-D-Phe-Lys-NH2) and [azaLys^6]-GHRP-6 (His-D-Trp-Ala-Trp-D-Phe-azaLys-NH2, negative control) at 10^−6 M were used as positive and negative controls, respectively. After 1 h pre-incubation, the cells were stimulated overnight using the TLR2 ligand fibroblast-stimulating lipopeptide (R-FSL-1) (Invivogen® #L7022) at a concentration of 300 ng/mL. Supernatants were then collected for nitrite production analysis by fluorescence using 2,3-diaminonaphthalene (DAN). Briefly, 25 μL of sample was incubated with 0.5 μg of DAN in a 100 μL final volume of phosphate buffer (50 mM, pH 7.5) at room temperature in the dark. After 15 min, the reaction was stopped with 20 μL of NaOH (2.8N) and the plate was read using a fluorescence plate reader (TECAN® Safire, λexc 365 nm and λem 430 nm).

[3] = tested on: R-FSL-1 (TLR2 agonist)-induced TNF-α and CCL-2 release in RAW macrophages; assay: R-FSL-1-induced TNF-α and CCL-2 release in RAW macrophages; type: cell-based, murine; conditions: 10^−7 M
Method: The murine RAW1 macrophage cell line was obtained from American Type Cell Collection (ATCC #TIB-71). RAW cells were seeded at 150,000 cells per well in a 48-well plate (Costar® #3548) and weaned overnight in medium (DMEM supplemented 1% penicillin/streptomycin) at 37° C. with 5% CO2. The next day, the medium was changed to DMEM-1% penicillin/streptomycin supplemented with 0.2% BSA. The cells were first pretreated with 300 μL of azapeptides DBG178 (MPE-133, reference standard), 25 (MPE-210), 26 (MPE-266), 28 (MPE-268), 32 (MPE-267), 33 (MPE-298), 38 (MPE-308), 35 (MPE-300), 39 (MPE-310) and azaLys6-GHRP-6 (as negative control) at 10^-7M for 30 min. Then, […] of the TLR2 agonist, R-FSL-1 (300 ng/ml final concentration, R-FSL-1, Invivogen® #L7022) was added for 4 h period of incubation at 37° C. with 5% CO2. At the end of the incubation period, media were collected and stored at −80° C. for TNF-α and CCL-2 assays using ELISA kits (EbioScience® #88-7391 and #88-7324). Results were analyzed by analysis of variance (ANOVA) with post hoc comparisons using Dunnett's test with a statistical software package (Graph Pad Prism® version 7.0). P<0.05 was considered statistically significant.

| Structure (SMILES) | IC50 [1] | binding to CD36 (in words) [1] | suppression of R-FSL-1-mediated NO production [2] | further results |
| --- | --- | --- | --- | --- |
| C[C@H](NC(=O)[C@@H](Cc1c[nH]c2ccccc12)NC(=O)[C@@H](N)Cc1c[nH]cn1)C(=O)NN(Cc1ccc(O)cc1)C(=O)N[C@H](Cc1ccccc1)C(=O)N[C@@H](CCCCN)C(N)=O [MPE-001, His-D-Trp-Ala-AzaTyr-D-Phe-Lys-NH2, reference compound] (H-H[dW]A[azaTyr][dF]K-NH2) | ~2 µM |  |  |  |
| C=CCN1CC#CCN(NC(=O)[C@H](C)N)S(=O)(=O)N[C@H](Cc2c[nH]c3ccccc23)C(=O)N[C@@H](C)C(=O)N[C@@H](Cc2c[nH]c3ccccc23)C(=O)N[C@H](Cc2ccccc2)C(=O)N[C@H](C(N)=O)CCCC1 [MPE-400] | 11.6 µM | detectable binding |  |  |
| C=CCN1CC#CCN(NC(=O)[C@H](C)NC(C)=O)C(=O)N[C@H](Cc2c[nH]c3ccccc23)C(=O)N[C@@H](C)C(=O)N[C@@H](Cc2c[nH]c3ccccc23)C(=O)N[C@H](Cc2ccccc2)C(=O)N[C@H](C(N)=O)CCCC1 [MPE-308] | 0.67 µM |  |  | suppression of NO production compared with positive control MPE-001 at the same concentration ([2]; 10^−7 M, FIG. 4F): more important; suppression of R-FSL-1-mediated NO production at 10^−7 M ([2]; 10^−7 M, further analyses, FIG. 4F): significant suppression; R-FSL-1-mediated NO production, % of control ([2]; control = R-FSL-1 only, noticeable reduction without reaching significance (P<0.01)): about 80 % of control; effect on R-FSL-1-induced CCL-2 release [3]: significant inhibitory effect; effect on R-FSL-1-induced TNF-α release [3]: significant inhibitory effect |
| C=CCN1CC#CCN(NC(=O)[C@@H](Cc2c[nH]c3ccccc23)NC(=O)[C@@H](N)Cc2cnc[nH]2)C(=O)N[C@@H](Cc2c[nH]c3ccccc23)C(=O)N[C@H](Cc2ccccc2)C(=O)N[C@H](C(N)=O)CCCC1 [MPE-266] | 0.68 µM |  | significant suppression | effect on R-FSL-1-induced CCL-2 release [3]: significant inhibitory effect; effect on R-FSL-1-induced TNF-α release [3]: significant inhibitory effect |
| CN1CC#CCN(NC(=O)[C@@H](Cc2c[nH]c3ccccc23)NC(=O)[C@@H](N)Cc2cnc[nH]2)C(=O)N[C@@H](Cc2c[nH]c3ccccc23)C(=O)N[C@H](Cc2ccccc2)C(=O)N[C@H](C(N)=O)CCCC1 [MPE-210] | 2.06 µM |  |  | effect on R-FSL-1-induced CCL-2 release [3]: no significant effect; effect on R-FSL-1-induced TNF-α release [3]: no significant effect |
| C=CCN1CC#CC[C@@H](NC(=O)[C@H](C)N)C(=O)N[C@H](Cc2c[nH]c3ccccc23)C(=O)N[C@@H](C)C(=O)N[C@@H](Cc2c[nH]c3ccccc23)C(=O)N[C@H](Cc2ccccc2)C(=O)N[C@H](C(N)=O)CCCC1 [MPE-074] | 1.04 µM | detectable binding |  |  |
| C=CCN1CC#CC[C@@H](NC(=O)[C@H](C)N)C(=O)N[C@@H](C)C(=O)N[C@@H](Cc2c[nH]c3ccccc23)C(=O)N[C@H](Cc2ccccc2)C(=O)N[C@H](C(N)=O)CCCC1 [MPE-110] | 3.32 µM | detectable binding |  |  |
| C=CCN1CC#CCN(NC(=O)[C@H](C)N)C(=O)N[C@H](Cc2c[nH]c3ccccc23)C(=O)N[C@@H](C)C(=O)N[C@H](C(=O)N[C@H](Cc2ccccc2)C(=O)N[C@@H](CCCCN)C(N)=O)CCCC1 [MPE-300] | 10 µM and 10.6 µM |  | significant suppression |  |
| C=CCN1CC#CCN(NC(=O)[C@@H](C)N)C(=O)N[C@H](Cc2c[nH]c3ccccc23)C(=O)N[C@@H](C)C(=O)NN(Cc2ccc(OC)cc2)C(=O)N[C@H](Cc2ccccc2)C(=O)N[C@H](C(N)=O)CCCC1 [MPE-189] | 3.26 µM | detectable binding | significant suppression |  |
| C=CCN1CC#CCC(NC(=O)[C@H](C)N)C(=O)N[C@H](Cc2c[nH]c3ccccc23)C(=O)N[C@@H](C)C(=O)N[C@@H](Cc2c[nH]c3ccccc23)C(=O)N[C@H](Cc2ccccc2)C(=O)N[C@H](C(N)=O)CCC1 (some centres unmarked) [MPE-048] | 13.7 µM | detectable binding |  |  |
| C=CCN1CC#CCN(NC(=O)C(C)N)C(=O)N[C@H](Cc2c[nH]c3ccccc23)C(=O)N[C@@H](C)C(=O)N[C@@H](Cc2c[nH]c3ccccc23)C(=O)N[C@H](Cc2ccccc2)C(=O)N[C@H](C(N)=O)CCCC1 (stereo in doubt) [MPE-202] | 14.3 µM |  |  |  |
| C=CCN1CC#CCN(NC(=O)C(N)C(C)C)C(=O)N[C@H](Cc2c[nH]c3ccccc23)C(=O)N[C@@H](C)C(=O)N[C@@H](Cc2c[nH]c3ccccc23)C(=O)N[C@H](Cc2ccccc2)C(=O)N[C@H](C(N)=O)CCCC1 (stereo in doubt) [MPE-203] | 2.26 µM |  |  |  |
| C=CCN1CC#CC[C@H](NC(=O)[C@H](C)N)C(=O)N[C@H](Cc2c[nH]c3ccccc23)C(=O)N[C@@H](C)C(=O)N[C@@H](Cc2c[nH]c3ccccc23)C(=O)N[C@H](Cc2ccccc2)C(=O)N[C@H](C(N)=O)CCCC1 [MPE-075] | 0.66 µM | detectable binding | significant suppression |  |
| C=CCN1CC#CC[C@H](NC(=O)[C@H](C)N)C(=O)N[C@@H](C)C(=O)N[C@@H](Cc2c[nH]c3ccccc23)C(=O)N[C@H](Cc2ccccc2)C(=O)N[C@H](C(N)=O)CCCC1 [MPE-111] | 0.24 µM | detectable binding | significant suppression |  |
